In patent US20080275111A1, “Novel Use of Lignan Compounds” (priority 2005, published 2008):

Legend:
NO = NO production in LPS-activated microglia (Griess reagent); assay type: cell-based, mouse; settings: 1 μg/ml LPS
Method: When the microglia is activated, the expression of NO as a mediator of nerve transmission and immune response is induced (Liu, B. et al., Ann. N.Y. Acad. Sci., 962:318-331, 2002). Therefore, the effect of the lignan compound of the present invention on the NO production in microglia was examined. First, only the neocortex was isolated from the brain of 1 day-old mouse. Then, a microglia-astroglia mixture was prepared according to a method known in the art (Kim, H. Y. et al., J. Immunol., 171:6072-6079, 2003). The microglia-astroglia mixture was then divided at a ratio of 4 flasks/1 head and cultured in MEM medium containing 10% FBS in a 75 cm^2 flask for 2 weeks. The microglia was separated from the cultured cells and cultured in MEM medium containing 5% FBS for 24 hours. The tissue-cultured microglia was inoculated into MEM medium containing 5% FBS at a concentration of 1.5×10^4 cells/well and cultured in a 96-well plate. After 1 day of cultivation, the microglia was treated with 1 μg/ml of LPS (Sigma) to induce activation of the microglia. […] Then, the cell-cultured medium was collected and NO production was measured. The NO production was analyzed by measuring the amount of nitrite as a stable metabolite of NO in the cell-cultured medium using Griess reagent kit (Molecular Probe). […] Then, the absorbance of the resulting solution was measured with a microplate reader at 548 nm.

iNOS = iNOS expression in LPS-activated microglia (Western blotting); assay type: cell-based, mouse; settings: 1 μg/ml LPS, compound 2.5 and 10 μM, 16 or 24 hours
Description: In Example <6-2>, it was observed that the NO production induced by LPS in the tissue-cultured microglia of mouse was inhibited by the lignan compound of the present invention. NO is produced by iNOS enzyme of which expression is induced by activation of microglia. Therefore, the correlation between the reduction of NO production and inhibition of iNOS expression was examined. Additionally, a change in the amount of a protein COX-2 participating in the production of other inflammation-mediating materials was examined. For Western blotting analysis, tissue-cultured microglia was cultured in a 60 mm cell culture dish up to a concentration of 7.5×10^5 cells/ml. After 1 day of cultivation, the activation of microglia was induced by 1 μg/ml of LPS (Sigma) treatment. Simultaneously, the microglia was also treated with 2.5 and 10 μM of the lignan compound of the present invention together with LPS, and incubated for 16 or 24 hours. The incubated cell was washed with cold PBS 2 times, and then dissolved in a cold lysis buffer (1% SDS, 1 mM Na3VO4, 10 mM NaF, 10 mM Tris-Cl, pH 7.4 containing 1× protease inhibitors cocktail). […] Then, the amount of proteins was quantified according to BCA method. […]
NaCl containing 0.1% Tween 20) 3 times. […] Again, the membrane was then washed with TBS-T solution 3 times, and each band on the membrane was analyzed using ECL system (Sigma).

## COc1cc(C[C@H](C)[C@H](C)Cc2ccc3c(c2)OCO3)ccc1O [macelignan, (8R,8′S)-7-(3,4-methylenedioxyphenyl)-7′-(4-hydroxy-3-methoxyphenyl)-8,8′-dimethylbutane]
NO; compound 2.5 and 10 μM, 16 or 24 hours
  NO production induced by LPS: dose-dependently inhibited
NO; Mus musculus, 10 μM compound, read-out: inhibition rate of NO production
  inhibition at 10 µM: ~90%
iNOS
  expression of iNOS induced by LPS: inhibited in a concentration dependent manner
